Data set [1] deals with T1, carboxylesterase 1 (CES1) (Homo sapiens, UniProt P23141).
T1 construct: purchased R & D Systems (Minneapolis, Minn.)
T1 sequence (P23141 18-567): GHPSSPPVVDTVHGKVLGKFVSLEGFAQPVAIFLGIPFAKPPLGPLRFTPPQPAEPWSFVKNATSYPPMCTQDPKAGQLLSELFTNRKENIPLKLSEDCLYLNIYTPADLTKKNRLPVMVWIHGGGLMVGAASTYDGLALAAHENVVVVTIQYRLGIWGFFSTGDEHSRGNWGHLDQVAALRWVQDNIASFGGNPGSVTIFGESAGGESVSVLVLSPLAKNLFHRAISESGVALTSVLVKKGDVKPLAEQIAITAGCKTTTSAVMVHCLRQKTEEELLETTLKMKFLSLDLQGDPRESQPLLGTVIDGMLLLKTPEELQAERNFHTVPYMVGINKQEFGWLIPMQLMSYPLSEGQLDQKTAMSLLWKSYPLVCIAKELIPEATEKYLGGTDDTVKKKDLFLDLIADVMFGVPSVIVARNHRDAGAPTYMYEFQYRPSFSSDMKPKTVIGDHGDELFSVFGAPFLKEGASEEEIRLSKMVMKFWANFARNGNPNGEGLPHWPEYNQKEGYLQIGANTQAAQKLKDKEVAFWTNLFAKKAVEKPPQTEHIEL
Kind of data set: Hydrolysis of prodrugs by Carboxylesterase 1. In kind it is in vitro ADME. As to conditions: for CES1 hydrolysis: 100 μM compound, 37° C., pH 7.5.
Experimental: CES1 assay was performed at 37° C. in the reaction mixture containing 50 mM Tris/HCl buffer pH 7.5 and 100 μM of the compound. Reaction was started by addition of the CES1 to the final concentration 0.01 μg/mL. 100 μL aliquots were taken after 0.5 min, 3 hrs and 21 hrs of the incubation and the reaction was stopped by mixing with 100 μl of the ice-cold methanol prior to HPLC analysis.
Samples were analyzed by HPLC using 5 μC-18, 4.6×250 mm Phenomenex® Columbus column (Phenomenex USA, Calif.). The mobile phase consisted of buffer A (25 mM potassium phosphate with 5 mM tetrabutylammonium dihydrogen phosphate pH 6.3) and buffer B (100% methanol).

The nature of data set [2]: Liver TP formation and liver targeting in vivo (Example 6, Table 7). The arrangement: species or system mice and monkey. The text has this: The in vitro antiviral inactivity of Z4 and Z2 is thought to reflect an inability of Huh-7 replicon cells to metabolize the prodrug moiety.
The test system of data set [3] is HCV genotype 1b replicon. Kind of data set: HCV replicon assay. The class given is cell-based. How it is done:
Huh-7-derived cell line (Zluc) that harbors an HCV genotype 1b replicon and a luciferase reporter gene was grown in Dulbecco's Modified Eagle Medium (DMEM) supplemented with 10% fetal bovine serum, 2 mM GlutaMAX, 1% MEM nonessential amino acids, 100 IU/mL penicillin, 100 μg/mL streptomycin, and 0.5 mg/mL Geneticin® (G418). For dose response testing the cells were seeded in 96-well plates at 7.5×10^3 cells per well in a volume of 50 μL, and incubated at 37° C./5% CO2. Drug solutions were made up freshly in Huh-7 media as 2× stocks. Ten additional 5-fold dilutions were prepared from these stocks in DMEM without G418. At least three hours after Zluc cells were seeded, drug treatment was initiated by adding 50 μL of drug dilutions to the plates in duplicate. Final concentrations of drug ranged from 100 μM to […]. Cells were then incubated at 37° C./5% CO2. Alternatively, compounds were tested at two concentrations (1 μM and 10 μM). […] For this, media was removed from the plates via gentle tapping. Fifty microliters of ONE-glo luciferase assay reagent was added to each well. The plates were shaken gently for 3 min at room temperature and luminescence was measured on a Victor^3 V 1420 multilabel counter (Perkin Elmer) with a 1 second read time using a 700 nm cut-off filter. The EC50 values were calculated from dose response curves from the resulting best-fit equations determined by Microsoft Excel and XLfit 4.1 software. When screening at two fixed concentrations, the results were expressed as % inhibition at 1 μM and 10 μM.
A general note: Replicon systems follow genome replication, usually without infectious particles.

The subject of data set [4] is Huh-7 cells. Kind of data set: Release of active metabolite in Huh-7 cells. In kind it is in vitro ADME, human. How it is done:
Huh-7 cells were plated in 1 mL culture medium (DMEM, containing glucose, L-glutamine and sodium pyruvate, 10% FBS, 100 IU/mL penicillin, 100 μg/mL streptomycin, 2 mM GlutaMAX, 1% MEM non-essential amino acids) at the concentration 0.8, 0.4 and 0.2 million cells per well on 6 well plates for 24, 48 and 72 hr treatment, respectively. Plated cells were incubated overnight at 37° C. in an incubator.
The following morning test compound was diluted to 20 μM from a stock solution in DMSO in fresh culture medium pre-warmed to 37° C. and 1 mL of the solution/well was added to cells. A final medium volume per well was 2.0 mL, test compound concentration in well was 10 μM and final DMSO concentration was 0.1%.
After 24, 48 or 72 hr, the medium was carefully removed and cell monolayers were washed twice with 2 mL ice-cold PBS per well. Following the last wash, all PBS was carefully removed and 1.0 mL of extraction solution (ice-cold 70% methanol) added. The plate was tightly covered with Parafilm, plastic plate cover and Parafilm again and an intracellular content was extracted at −20° C. for 24 hr.
After 24 hr the extracts were transferred into polypropylene microfuge tubes and dry on a refrigerated centrivap concentrator. Dry residues were reconstituted in 250 μL of HPLC-grade water and centrifuged at 16,000×g for 10 min. Aliquots (100 μL each) of the supernatants were transferred into a 96 well plate and internal standard (4 ng/mL final concentration) was added as the internal standard (IS) for LC-MS/MS analysis.

Data set [5] has as its target T2, cathepsin A (CatA) (Homo sapiens, UniProt P10619).
T2 sequence (P10619 29-326 limits assumed): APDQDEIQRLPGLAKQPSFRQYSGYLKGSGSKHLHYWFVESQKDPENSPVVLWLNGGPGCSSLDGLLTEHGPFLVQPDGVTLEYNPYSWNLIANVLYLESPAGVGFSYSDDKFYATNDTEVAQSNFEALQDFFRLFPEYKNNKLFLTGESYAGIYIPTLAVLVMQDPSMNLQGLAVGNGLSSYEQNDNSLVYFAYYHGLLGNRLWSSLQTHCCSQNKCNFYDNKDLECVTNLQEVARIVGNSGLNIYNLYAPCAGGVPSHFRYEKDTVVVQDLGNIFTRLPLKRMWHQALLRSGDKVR
T2 sequence (P10619 327-480 limits assumed): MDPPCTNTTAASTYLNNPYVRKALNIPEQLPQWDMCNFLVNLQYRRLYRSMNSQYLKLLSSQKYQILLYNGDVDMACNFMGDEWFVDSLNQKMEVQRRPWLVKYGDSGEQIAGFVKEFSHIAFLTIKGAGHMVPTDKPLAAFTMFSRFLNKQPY
Kind of data set: Hydrolysis of prodrugs by Cathepsin A. The class given is in vitro ADME. Particulars: time not given; 100 μM compound, 37° C., pH 6.0. How it is done:
CatA, cathepsin L (CatL) and CES1 were purchased from R & D Systems (Minneapolis, Minn.). Prior to the enzymatic hydrolysis reactions, CatA was activated according to the manufacturer's instruction. Briefly, CatA (0.05 μg/μL) was incubated with CatL (0.005 μg/μL) for 30 min at 37° C. in 25 mM MES pH 6.0 containing 5 mM DTT. The reaction was stopped by addition of the CatL specific inhibitor E64 (10 μM).
The CatA assay was performed at 37° C. The reaction mixture contained 25 mM MES buffer pH 6.0, 100 mM NaCl, 4 mM DTT and 100 μM of the compound. The reaction was started by addition of the activated CatA enzyme to a final concentration of 0.005 μg/μL. […] Reactions were stopped by mixing the sample with an equal volume of ice-cold methanol, and were loaded on a HPLC for analysis.

Data set [6] deals with Zluc cells. The data set is described as follows: Cytotoxicity evaluation in Zluc cells (CellTiter-Blue). The class given is cell-based, human. Particulars: read-out: HCV Replicon CC50. The method, then:
For cytotoxicity evaluation, Zluc cells were treated with compound as described herein, and cell viability was monitored using the CellTiter-Blue Cell Viability Assay (Promega) by adding 20 μL of the assay solution to each well. The plates were then incubated at 37° C./5% CO2 for at least 3 hours.

Data set [7] is described as follows: Plasma nucleoside and liver triphosphate PK after single oral dose (Example 4). Particulars: at 1 μmol/kg, single oral dose 10 mg/kg in PEG 200; for Cmax: read-out: Ms Plasma nucleoside Cmax. In kind it is in vivo, CD-1 mice. How it is done:
Plasma samples were analyzed for nucleoside by LC-MS/MS. The internal standard (IS) was either 2′-MeG-D3 or tiapride. For protein precipitation and extraction, each plasma sample (50 μL) was treated with 500 μL of 0.2% formic acid in acetonitrile and 20 μL of the internal standard working solution. After vortexing and centrifugation, 500 μL of the sample extracts were transferred to a new plate, dried under N2 at ˜28° C. and reconstituted with 75 μL of 0.2% FA in water. The extracts were chromatographed on an Aquasil C18 column using a gradient system of 0.2% formic acid in water and acetonitrile. The analytes were detected and quantified by tandem mass spectrometry in positive ion mode on an MDS Sciex API5000 equipped with a Turbo Ionspray® interface. The calibration range was 0.500 (LLOQ) to 200 ng/mL in mouse plasma.
Internal standard solution was added to the homogenate followed by neutralization with 20% ammonium hydroxide solution and addition of 500 μL 1% formic acid. The tissue samples were extracted by weak anion exchange solid phase extraction (SPE). Post extraction, the eluates were evaporated under nitrogen, followed by reconstitution before injection onto the LC-MS/MS system.

Data set [8] concerns fresh mouse hepatocyte. The data set is described as follows: Release of active metabolite in primary hepatocytes (mouse). The class given is in vitro ADME. As to conditions: 10 μM. The method, then: Plates of fresh human and mouse hepatocytes were obtained on ice. The medium was removed and replaced with hepatocyte culture medium (William's E supplemented with penicillin-streptomycin, 1% L-glutamine, 1% insulin-transferrin-selenium and 0.1 μM Dexamethasone (Invitrogen) or with Invitro GRO HI medium complemented with Torpedo antibiotics (Celsis)). Cells were left overnight in an incubator at 37° C. to acclimatize to culture and the medium.
Hepatocyte incubations were conducted at a final volume of 0.5 mL hepatocyte culture medium/well (0.8 million cells/well for human and 0.5 million cells/well for mouse; 12 well plate no overlay, collagen coat). Culture medium from overnight incubation of cells was removed and replaced with fresh medium, pre-warmed to 37° C., containing 10 μM of test compound from a stock solution in DMSO (final DMSO concentration was 0.1%). At each specific time point, incubation medium was removed and cell monolayers were carefully washed two times with ice-cold PBS. Following the last wash, all PBS was carefully removed and 1.0 mL of extraction solution (ice-cold 70% methanol/30% water) added. Cells were scraped off and suspended in the extraction solution, transferred to 2 mL polypropylene microfuge tubes and intracellular contents extracted overnight at −20° C.
After the overnight treatment the cellular extracts were prepared by centrifugation at 16,000×g for 10 min to remove cellular debris. The remaining sample was then dried using a refrigerated centrivap concentrator. Dry extracts were reconstituted in 1000 μL of HPLC-grade water and centrifuged at 16,000×g for 10 min. Aliquots (100 μL each) of the supernatant were transferred into a 96 well plate and internal standard (4 ng/mL final concentration) was added as the internal standard (IS) for LC-MS/MS analysis.
The incubation time points were 6, 24 and 48 hours for human hepatocytes and 1, 4, 8, 12 and 24 hours for mouse hepatocytes.

The text below walks through data of patent US10717758B2, “D-amino acid compounds for liver disease” (priority 2012, dated 2020).

SMILES strings stand for the structures. Like-named read-outs stand apart in the source and are kept apart here.

As a reminder, the EC50 is the midpoint of the concentration-response curve. With `CC(C)OC(=O)[C@@H](C)N[P@@](=O)(OC[C@H]1O[C@@H](n2ccc(=O)[nH]c2=O)[C@](C)(F)[C@@H]1O)Oc1ccccc1` [Compound (804a) Ia (RP isomer), D-Alanine, N—((RP,2′R)-2′-deoxy-2′-fluoro-2′-methyl-P-phenyl-5′-uridylyl)-, 1-methylethyl ester], in data set [1], the “Hydrolysis by CES1” value is reported as “processed”. Further, the figures for the CES1 hydrolysis in data set [1] (3 h) and in data set [1] (21 h) were 10% @ and 3 h; 26%, respectively. Besides, the “Liver:plasma ratio of drug metabolites” value in data set [2] is listed as “high liver:plasma ratio of drug metabolites”. Further, the EC50 in data set [3] (Hepatitis C virus, Huh-7, read-out: EC50 (replicon reproduction), genotype 1b HCV replicon-bearing human hepatoma cell line (Huh-7)) is greater than 50 µM; in data set [3] (Hepatitis C virus, Table 7, read-out: EC50), greater than 50 µM. Further, the “Huh-7 AUC0-72” value in data set [4] (Table 7) is 720.4 pmol*hr/10^6cells. In addition, in data set [5], the CatA hydrolysis is on record as 0%.
In general, CC50 refers to the concentration that lowers cell viability or growth by half. By Cmax is commonly meant the peak of the concentration-time curve. Regarding `CC(C)OC(=O)[C@H](C)NP(=O)(OC[C@H]1O[C@@H](n2ccc(=O)[nH]c2=O)[C@](C)(Cl)[C@@H]1O)Oc1ccccc1` (single isomer, unassigned; diastereomer 1) [40ii Diastereomer 1], in data set [6], the CC50 is greater than 50 µM. Moreover, the 50% effective concentration (EC50) in data set [3] (Zluc (Huh-7-derived) cells, luciferase reporter, 72 hours, read-out: HCV Replicon EC50) is less than 0.25 µM. Moreover, in data set [7], the “Ms Plasma nucleoside AUC” value was 0.00349 M·s and the highest concentration (Cmax) came to 86 nM. Besides, in data set [4] (10 μM test compound), the “Huh-7 TP AUC” value is listed as 4380 pmol.hr/mill cells and the “Huh-7 TP Cmax” value was determined as 123 pmol/mill cells. In addition, the “Huh-7 TP (24 hr)” value in data set [4] (10 μM test compound, 24 hr) worked out at 25. The “Huh-7 TP (48 hr)” value in data set [4] (10 μM test compound, 48 hr) is recorded as 96. For the same compound, the “Huh-7 TP (72 hr)” value in data set [4] (10 μM test compound, 72 hr) is given as 123.
Consider `CC(C)OC(=O)[C@@H](C)NP(=O)(OC[C@H]1O[C@@H](n2ccc(=O)[nH]c2=O)[C@](C)(Cl)[C@@H]1O)Oc1ccccc1` (single isomer, unassigned; diastereomer 2) [40i Diastereomer 2], for which, in data set [7], the “Ms Plasma nucleoside AUC” value came out at 0.0036 M·s and the Cmax was 64 nM. Besides, in data set [8], the “MsH AUC” value was determined as 1073 pmol.hr/mill cells and the “MsH Cmax” value was determined as 89 pmol/mill cells.
For the compound `CC(C)OC(=O)[C@@H](C)NP(=O)(OC[C@H]1O[C@@H](n2ccc(=O)[nH]c2=O)[C@](C)(Cl)[C@@H]1O)Oc1ccccc1` (single isomer, unassigned; diastereomer 2) [Compound 40i Diastereomer 2], the CES1 hydrolysis in data set [1] (21 h) stood at 4.5% @. Besides, the “Liver TP” value in data set [2] is 4400 pmol·h/g. Also, in data set [3] (Table 7, read-out: EC50), the concentration for a half-maximal effect (EC50) turned out to be 7 µM. In data set [5], the CatA hydrolysis came out at 0%.
